Data taken from patent US9550802B2, “Anti-inflammatory macrolides” (priority 2012, dated 2017).

Experiments:
[1] = tested on: CF human primary airway epithelial cells (CF hAEC); test: Stimulation of chloride release (Cl efflux, SPQ fluorescence) in cystic fibrosis cells; type: cell-based; conditions: 10 μM; CF hAEC or non-CF (S9) cells
Procedure: CF human primary airway epithelial cells (CF hAEC) on non-CF (S9) were cultured in the presence of compound 1 or azithromycin 10 μM. Cl efflux was monitored by fluorescence of [6-methoxy-N-(3-sulfopronyl)-quinolinium (SPQ).

[2] = Titration of macrolide with organic acid in saline; type: physicochemical; conditions: for Vol. Added (mL) Score = 4: acid solution 10 mg/mL in saline added until fully dissolved; for End conc. macrolide: after titration
Procedure: After each addition, the mixture or solution was placed in the ultrasonic bath for 10 minutes followed by agitation for an additional 10 minutes. The mixtures were given a visual score depending on the presence of precipitate in the mixture (0 to 4, 0 being undissolved and 4 being fully-dissolved) and the pH of the supernatant fluid was measured.

[3] = Maximum solubility determination of organic salts in saline; type: physicochemical; conditions: for Visual Score: score 0 to 4
Procedure: The mixtures were given a visual score depending on the presence of precipitate in the mixture (Score ranges from 0 to 4, with 0 showing undissolved solid precipiate and 4 being fully-dissolved). Solubility of the salts was tested in 10 mM, 100 mM, 500 mM and 1M.

[4] = macrolide (not named) + acid equivalent of organic acid in saline, 100 mM
[5] = macrolide (not named) + acid equivalent of organic acid in saline, 500 mM
[6] = macrolide (not named) + acid equivalent of organic acid in saline, 1M

SMILES	Cl efflux as determined by fluorescence change (SPQ) [1]	Amt acid added to dissolve ([2]; 10 mM COMPOUND 1 in saline) [mg]	Amt corr. to mol eq. ([2]; 10 mM COMPOUND 1 in saline) [mg]	mol. eq. acid (minimum mole equivalence of acid needed to dissolve) ([2]; 10 mM COMPOUND 1 in saline) [mol. eq.]	Vol. Added (mL) Score = 4 ([2]; 10 mM COMPOUND 1 in saline) [mL]	End conc. macrolide ([2]; COMPOUND 1 in saline) [mM]	End conc. macrolide ([2]; azithromycin in saline) [mM]	Amt acid added to dissolve ([2]; azithromycin, 10 mM in saline) [mg]	Amt corr. to mol eq. ([2]; azithromycin, 10 mM in saline) [mg]	mol. eq. acid (minimum mole equivalence of acid needed to dissolve) ([2]; azithromycin, 10 mM in saline) [mol. eq.]	Vol. Added (mL) Score = 4 ([2]; azithromycin, 10 mM in saline) [mL]	pH ([3]; macrolide (not named) + acid equivalent of organic acid in saline (0.9% aq. NaCl), 10 mM)	Visual Score ([3]; macrolide (not named) + acid equivalent of organic acid in saline, 10 mM)	pH [3, 4]	Visual Score [3, 4]	pH [3, 5]	Visual Score [3, 5]	pH [3, 6]	Visual Score [3, 6]
CC[C@H]1OC(=O)[C@H](C)[C@@H](O[C@H]2C[C@@](C)(OC)[C@@H](O)[C@H](C)O2)[C@H](C)[C@@H](O[C@@H]2O[C@H](C)C[C@H](N(C)C)[C@H]2O)[C@](C)(O)C[C@@H](C)CN(C)[C@H](C)[C@@H](O)[C@]1(C)O [azithromycin]	stimulate Cl efflux	–	–	–	–	–	–	–	–	–	–	–	–	–	–	–	–	–	–
O=C(O)CC(=O)C(=O)O [oxaloacetatic acid]	–	4.00	4.00	0.64	0.40	9.2	8.7	8.00	8.00	1.10	0.80	–	–	–	–	–	–	–	–
O=C(O)CCCCCCC(=O)O [subaric acid]	–	8.30	8.30	1.05	–	10.0	10.0	6.70	6.70	0.70	–	6.8	4	5.5	4	8.0	4	10.0	2
